Assay results: patent US20260374754A1, “N-((ISOQUINOLIN-6-YL)METHYL)-1H-PYRAZOLE-4-CARBOXAMIDE DERIVATIVES AS PLASMA KALLIKREIN INHIBITORS FOR THE TREATMENT OF HEREDITARY ANGIODEMA” (Takeda Pharmaceutical Company Limited, priority 2022, published 2026)
pEC50: −log10 of the molar value. Where a name gives a salt, the structure may show the parent alone.

These compounds were tested against human activated kallikrein enzyme (Homo sapiens, UniProt P03952) (assay: Inhibition of human activated plasma kallikrein, fluorogenic PFR-AMC substrate, 500 pM enzyme format). Settings: 500 pM activated kallikrein; 300 μM PFR-AMC; 30 min preincubation; 10 min room temperature; pH 7.5; read-out: Primary Dose Response Assay: Average EC50.
Sequence of human activated kallikrein enzyme (P03952 391-638 limits assumed): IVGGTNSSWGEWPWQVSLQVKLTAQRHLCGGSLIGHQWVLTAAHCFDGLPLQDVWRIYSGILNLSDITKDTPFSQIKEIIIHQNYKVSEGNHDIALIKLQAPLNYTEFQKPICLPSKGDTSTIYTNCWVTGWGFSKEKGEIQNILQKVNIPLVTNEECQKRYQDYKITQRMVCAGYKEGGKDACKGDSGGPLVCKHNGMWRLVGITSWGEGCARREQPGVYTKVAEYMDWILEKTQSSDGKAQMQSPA
Sequence of human activated kallikrein enzyme (P03952 20-390 partner limits assumed): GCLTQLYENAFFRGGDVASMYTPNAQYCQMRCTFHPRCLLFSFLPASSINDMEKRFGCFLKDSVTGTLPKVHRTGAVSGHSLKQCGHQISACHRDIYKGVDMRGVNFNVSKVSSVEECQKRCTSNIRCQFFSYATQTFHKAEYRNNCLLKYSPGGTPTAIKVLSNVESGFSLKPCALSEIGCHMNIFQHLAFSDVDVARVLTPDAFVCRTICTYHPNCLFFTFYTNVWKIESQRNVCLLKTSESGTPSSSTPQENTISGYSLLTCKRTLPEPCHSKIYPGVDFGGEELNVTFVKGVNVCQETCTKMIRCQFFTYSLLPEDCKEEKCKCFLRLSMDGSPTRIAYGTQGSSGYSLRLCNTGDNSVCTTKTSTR
Type: biochemical
How it was run: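 Using fluorogenic PFR-AMC at 300 μM, cleavage by 500 pM human activated kallikrein ran 10 min at room temperature, read at 460 nm emission (380 nm excitation). Enzyme and compounds were first preincubated 30 min in 20 mM Tris pH 7.5, 150 mM NaCl, 1 mM EDTA, 0.1% PEG-400, 0.1% Triton X-100.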
For `COC(=O)C12CC1CN(C(=O)Cc1ccc(Cn3cc(C(=O)NCc4c(C)cc5c(N)nccc5c4C)cn3)cc1)C2` (stereo not shown) [Example 217, methyl 3-(2-(4-((4-(((1-amino-5,7-dimethylisoquinolin-6-yl)methyl)carbamoyl)-1H-pyrazol-1-yl)methyl)pheny1)acetyl)-3-azabicyclo[3.1.0]hexane-1-carboxylate], the pEC50 was 8.00 to 9.00.
In the case of `Cc1cc2c(N)nccc2c(C)c1CNc1cc(NCc2ccc3c(-n4cccn4)cccc3c2)ncn1` [Example 246, N4-((5-(1H-pyrazol-1-yl)naphthalen-2-yl)methyl)-N6-((1-amino-5,7-dimethylisoquinolin-6-yl)methyl)pyrimidine-4,6-diamine], the pEC50 was greater than 9.00.
In the case of `Cc1cc2c(N)nccc2c(C)c1CNc1cc(NCc2ccc(Cc3ccc(Cl)cn3)cc2)ncn1` [Example 369, N^4-((1-amino-5,7-dimethylisoquinolin-6-yl)methyl)-N^6(4-((5-chloropyridin-2-yl)methyl)benzyl)pyrimidine-4,6-diamine], the pEC50 was 8.00 to 9.00.
`Cc1cc2c(N)nccc2c(C)c1CNc1cc(OCc2cnn(-c3ccccc3)c2)cnn1` [Example 442, 5,7-dimethyl-6-(((5-((1-phenyl-1H-pyrazol-4-yl)methoxy)pyridazin-3-yl)amino)methyl)isoquinolin-1-amine] showed a pEC50 of 8.00 to 9.00.
In the case of `Cc1cc2c(N)nccc2c(C)c1CNc1cc(OCc2ccc(Cn3cccn3)cc2)c(C(F)(F)F)nn1` [Example 450, 6-(((5-((4-((1H-pyrazol-1-yl)methyl)benzyl)oxy)-6-(trifluoromethyl)pyridazin-3-yl)amino)methyl)-5,7-dimethylisoquinolin-1-amine], the pEC50 was 8.00 to 9.00.
`Cc1cc2c(N)nccc2c(C)c1CNc1nccc2c1cnn2Cc1cn2cc(C3CC3)cnc2n1` [Example 393, 6-(((1-((6-cyclopropylimidazo[1,2-a]pyrimidin-2-yl)methyl)-1H-pyrazolo[4,3-c]pyridin-4-yl)amino)methyl)-5,7-dimethylisoquinolin-1-amine] was tested, and the pEC50 was 6.00 to 7.00.
In the case of `Cc1cc2c(N)nccc2c(C)c1CNc1cc(OCc2ccc3ncc(C(F)(F)F)cc3c2)cnn1` [Example 423, 5,7-dimethyl-6-(((5-((3-(trifluoromethyl)quinolin-6-yl)methoxy)pyridazin-3-yl)amino)methyl)isoquinolin-1-amine], the pEC50 was greater than 9.00.
With `Cc1cc2c(N)nccc2c(C)c1CNC(=O)c1cnn(Cc2cn3c(Br)cccc3n2)c1` [Example 139, N-((1-amino-5,7-dimethylisoquinolin-6-yl)methyl)-1-((5-bromoimidazo[1,2-a]pyridin-2-yl)methyl)-1H-pyrazole-4-carboxamide] the pEC50 was greater than 9.00.
With `Cc1cc2c(N)nccc2c(C)c1CNc1cc2c(ccn2Cc2ccc3ncc(Cl)cc3c2)cn1` [Example 531, 6-(((1-((3-chloroquinolin-6-yl)methyl)-1H-pyrrolo[3,2-c]pyridin-6-yl)amino)methyl)-5,7-dimethylisoquinolin-1-amine] the pEC50 was 7.00 to 8.00.
Work on `Cc1ccc2nc(COc3cnnc(NCc4c(C)cc5c(N)nccc5c4C)c3)cn2c1` [Example 425, 5,7-dimethyl-6-(((5-((6-methylimidazo[1,2-a]pyridin-2-yl)methoxy)pyridazin-3-yl)amino)methyl)isoquinolin-1-amine] yielded a pEC50 greater than 9.00.
In the case of `Nc1nccc2cc(CNc3cc(OCc4ccc(Cn5cccn5)cc4)ncn3)c(C(F)(F)F)cc12` [Example 535, 6-(((6-((4-((1H-pyrazol-1-yl)methyl)benzyl)oxy)pyrimidin-4-yl)amino)methyl)-7-(trifluoromethyl)isoquinolin-1-amine], the pEC50 was 6.00 to 7.00.
Work on `CC(=O)NC1(c2ccc(Cn3cc(C(=O)NCc4c(C)cc5c(N)nccc5c4C)cn3)cc2)CC1` [Example 19, 1-(4-(1-acetamidocyclopropyl)benzyl)-N-((1-amino-5,7-dimethylisoquinolin-6-yl)methyl)-1H-pyrazole-4-carboxamide] yielded a pEC50 greater than 9.00.
`Cc1cc2c(N)nccc2c(C)c1CNc1cc(OCc2cc3cc(C4CC4)ccc3s2)ncn1` [Example 395, 6-(((6-((5-cyclopropylbenzo[b]thiophen-2-yl)methoxy)pyrimidin-4-yl)amino)methyl)-5,7-dimethylisoquinolin-1-amine] was tested, and the pEC50 was 7.00 to 8.00.
With `Cc1cc2c(N)nccc2c(C)c1CNC(=O)c1cnn(Cc2ccc(CC(=O)N3C[C@@H]4[C@H](C)[C@@H]4C3)cc2)c1` [Example 205, N-((1-amino-5,7-dimethylisoquinolin-6-yl)methyl)-1-(4-(2-((1R,5S,6r)-6-methyl-3-azabicyclo[3.1.0]hexan-3-y1)-2-oxoethyl)benzyl)-1H-pyrazole-4-carboxamide] the pEC50 was greater than 9.00.
For `Cc1cc2c(N)nccc2c(C)c1CNc1cc(NCc2cc3ccccc3cn2)ncn1` [Example 315, N^4-((1-amino-5,7-dimethylisoquinolin-6-yl)methyl)-N^6-(isoquinolin-3-ylmethyl)pyrimidine-4,6-diamine], the pEC50 was 8.00 to 9.00.
`Cc1cc2c(N)nccc2c(C)c1CNC(=O)c1cnn(Cc2cn3c(C)c(Br)ccc3n2)c1` [Example 145, N-((1-amino-5,7-dimethylisoquinolin-6-yl)methyl)-1-((6-bromo-5-methylimidazo[1,2-a]pyridin-2-yl)methyl)-1H-pyrazole-4-carboxamide] was tested, and the pEC50 was greater than 9.00.
In the case of `CCOC(=O)CCc1nc(NCc2c(C)cc3c(N)nccc3c2C)cc(OCc2nc3ccc(C4CC4)cn3n2)n1` [Example 292, ethyl 3-(4-(((1-amino-5,7-dimethylisoquinolin-6-yl)methyl)amino)-6-((6-cyclopropyl-[1,2,4]triazolo[1,5-a]pyridin-2-yl)methoxy)pyrimidin-2-yl)propanoate], the pEC50 was 7.00 to 8.00.
`Cc1cc2c(N)nccc2c(C)c1CNc1cc(OCc2ccc(CN3CCOCC3=O)cc2)ncn1` [Example 302, 4-(4-(((6-(((1-amino-5,7-dimethylisoquinolin-6-yl)methyl)amino)pyrimidin-4-yl)oxy)methyl)benzyl)morpholin-3-one, trifluoroacetic acid salt] was tested, and the pEC50 was 8.00 to 9.00.
`Cc1cc2c(N)nccc2c(C)c1CNC(=O)c1cnn(Cc2cn3c(C#N)cccc3n2)c1` [Example 143, N-((1-amino-5,7-dimethylisoquinolin-6-yl)methyl)-1-((5-cyanoimidazo[1,2-a]pyridin-2-yl)methyl)-1H-pyrazole-4-carboxamide] was tested, and the pEC50 was greater than 9.00.
For `Cc1cc2c(N)nccc2c(C)c1CNc1cc(OCc2ccc3ncccc3c2)ncn1` [Example 374, 5,7-dimethyl-6-(((6-(quinolin-6-ylmethoxy)pyrimidin-4-yl)amino)methyl)isoquinolin-1-amine], the pEC50 was 7.00 to 8.00.
For `C/C=C(/c1ccc(CNc2cc(NCc3c(C)cc4c(N)nccc4c3C)ncn2)cc1)n1cccn1` [Example I-483, (Z)—N^4-(4-(1-(1H-pyrazol-1-yl)prop-1-en-1-yl)benzyl)-N^6-((1-amino-5,7-dimethylisoquinolin-6-yl)methyl)pyrimidine-4,6-diamine], the pEC50 was greater than 9.00.
For `Cc1cc2c(N)nccc2c(C)c1CNC(=O)c1cnn(Cc2ccc(Cc3nncn3C)cc2)c1` [Example 117, N-((1-amino-5,7-dimethylisoquinolin-6-yl)methyl)-1-(4-((4-methyl-4H-1,2,4-triazol-3-yl)methyl)benzyl)-1H-pyrazole-4-carboxamide], the pEC50 was 8.00 to 9.00.
`COc1ccc2nc(Cn3cc(C(=O)NCc4c(C)cc5c(N)nccc5c4C)cn3)ncc2c1` [Example 126, N-((1-amino-5,7-dimethylisoquinolin-6-yl)methyl)-1-((6-methoxyquinazolin-2-yl)methyl)-1H-pyrazole-4-carboxamide] showed a pEC50 of 7.00 to 8.00.
For `Cc1cc2c(N)nccc2c(C)c1CNC(=O)c1cnn(Cc2ccc(CC(=O)N3CC4CC4C3)c(Cl)c2)c1` (stereo not shown) [Example I-474, 1-(4-(2-(3-azabicyclo[3.1.0]hexan-3-yl)-2-oxoethyl)-3-chlorobenzyl)-N-((1-amino-5,7-dimethylisoquinolin-6-yl)methyl)-1H-pyrazole-4-carboxamide], the pEC50 was greater than 9.00.
Compound `Cc1cc2c(N)nccc2c(C)c1CNC(=O)c1cnn(Cc2ccc(CC(=O)NCc3ccccc3)cc2)c1` [Example 229, N-((1-amino-5,7-dimethylisoquinolin-6-yl)methyl)-1-(4-(2-(benzylamino)-2-oxoethyl)benzyl)-1H-pyrazole-4-carboxamide] has a pEC50 of 7.00 to 8.00.
With `Cc1cc2c(N)nccc2c(C)c1CNC(=O)c1cnn(Cc2cc3cc(C(F)(F)F)ccc3s2)c1` [Example 66, N-((1-amino-5,7-dimethylisoquinolin-6-yl)methyl)-1-((5-(trifluoromethyl)benzo[b]thiophen-2-yl)methyl)-1H-pyrazole-4-carboxamide] the pEC50 was 8.00 to 9.00.
For `Cc1cc2c(N)nccc2c(C)c1CNC(=O)c1cnn(Cc2ccc3c(cnn3C)c2)c1` [Example 52, N-((1-amino-5,7-dimethylisoquinolin-6-yl)methyl)-1-((1-methyl-1H-indazol-5-yl)methyl)-1H-pyrazole-4-carboxamide], the pEC50 was 8.00 to 9.00.
With `Cc1cc2c(N)nccc2c(C)c1CNC(=O)c1cnn(Cc2ccc(Oc3cccn(C)c3=O)cc2)c1` [Example 18, N-((1-amino-5,7-dimethylisoquinolin-6-yl)methyl)-1-(4-((1-methyl-2-oxo-1,2-dihydropyridin-3-yl)oxy)benzyl)-1H-pyrazole-4-carboxamide] the pEC50 was greater than 9.00.
`Cc1cc2c(N)nccc2c(C)c1CNc1cc(NCc2cnc3ccccc3c2)ncn1` [Example 317, N^4-((1-amino-5,7-dimethylisoquinolin-6-yl)methyl)-N^6-(quinolin-3-ylmethyl)pyrimidine-4,6-diamine, formic acid salt] showed a pEC50 of 8.00 to 9.00.
In the case of `CC(=O)Nc1nccc2c(C)c(CNC(=O)c3cnn(Cc4ccc5ncc(Cl)cc5c4)c3)c(C)cc12` [Example 133, N-((1-acetamido-5,7-dimethylisoquinolin-6-yl)methyl)-1-((3-chloroquinolin-6-yl)methyl)-1H-pyrazole-4-carboxamide], the pEC50 was 7.00 to 8.00.
`Cc1ccc2ncc(COc3cnnc(NCc4c(C)cc5c(N)nccc5c4C)c3)cc2c1` [Example 408, 5,7-dimethyl-6-(((5-((6-methylquinolin-3-yl)methoxy)pyridazin-3-yl)amino)methyl)isoquinolin-1-amine] gave a pEC50 greater than 9.00.
